# Laboratory results: ChEMBL document CHEMBL5120865, “Exploration of 6-methyl-7-(Hetero)Aryl-7-Deazapurine ribonucleosides as antileishmanial agents” (Eur J Med Chem, 2022)
# Legend:
# [1] = Selectivity index, ratio of CC50 for Cytotoxicity against Swiss mouse peritoneal macrophages to EC50 for intracellular Leishmania infantum MHOM/MA(BE)/67 ITMAP263 amastigotes infected in Swiss mouse peritoneal macrophages; type: toxicity, cell-based; conditions: read-out: Ratio CC50/EC50
# [2] = Metabolic stability in mouse liver microsomes S9 fraction assessed as UGT-mediated metabolism by measuring parent compound remaining measured after 15 mins in presence of NADPH; type: ADME, subcellular; conditions: read-out: Stability
# Leishmania infantum [3] = test: (§1) Antileishmanial activity against sodium stibogluconate, potassium antimonyl tartrate and MIL resistant intracellular Leishmania infantum MHOM/FR/96/LEM3323-CI4 MIL5C13 promastigotes infected in Swiss mouse peritoneal macrophages assessed as inhibition of parasite growth measured after 96 hrs by microscopic analysis; type: functional, organism-based; conditions: MHOM/FR/96/LEM3323-CI4 MIL5C13, Peritoneal macrophage
# [4] = Metabolic stability in mouse liver microsomes S9 fraction assessed as CYP450-mediated metabolism by measuring parent compound remaining measured after 60 mins in presence of NADPH; type: ADME, subcellular; conditions: read-out: Stability
# Trypanosoma cruzi = test: Antitrypanosomal activity against nifurtimox-sensitive Tulahuen CL2 amastigotes expressing beta galactosidase infected in human MRC5 cells assessed as inhibition of parasite growth using chlorophenol red beta-D-galactopyranoside as substrate and measured after 7 days by spectrophotometric analysis; type: functional, organism-based; conditions: Tulahuen CL2, MRC5, 168 h, read-out: EC50
# [5] = molecular target: T1, UDP-glucuronosyltransferases (UGTs) (Homo sapiens, UniProt O60656+O75310+O75795+P06133+P0DTE4+P0DTE5+P16662+P19224+P22309+P22310+P35503+P35504+P36537+P54855+Q6UWM9+Q9BY64+Q9HAW7+Q9HAW8+Q9HAW9); test: Metabolic stability in human liver microsomes S9 fraction assessed as UGT-mediated metabolism by measuring parent compound remaining measured after 60 mins in presence of NADPH; type: ADME, subcellular; conditions: read-out: Stability
# Leishmania infantum [6] = test: as §1, with “stibogluconate and” for “stibogluconate,”, “tartrate” for “tartrate and MIL”, “MHOM/FR/96/LEM3323-CI4” for “MHOM/FR/96/LEM3323-CI4 MIL5C13”; type: functional, organism-based; conditions: MHOM/FR/96/LEM3323-CI4, Peritoneal macrophage
# Cytochrome P450 [7] = molecular target: T2, Cytochrome P450 (Homo sapiens, UniProt P04798+P05177+P05181+P08684+P10632+P10635+P11509+P11712+P13584+P20813+P20815+P20853+P24462+P24903+P33260+P33261+P51589+P78329+P98187+Q02928+Q08477+Q16678+Q16696+Q5TCH4+Q6VVX0+Q7Z449+Q8TAV3+Q96SQ9+Q9HB55); test: Metabolic stability in human liver microsomes S9 fraction assessed as CYP450-mediated metabolism by measuring parent compound remaining measured after 15 mins in presence of NADPH; type: ADME, subcellular; conditions: read-out: Stability
# [8] = Metabolic stability in mouse liver microsomes S9 fraction assessed as UGT-mediated metabolism by measuring parent compound remaining measured after 60 mins in presence of NADPH; type: ADME, subcellular; conditions: read-out: Stability
# [9] = Metabolic stability in golden hamster liver microsomes S9 fraction assessed as UGT-mediated metabolism by measuring parent compound remaining measured after 15 mins in presence of NADPH; type: ADME, subcellular, Mesocricetus auratus; conditions: read-out: Stability
# [10] = Metabolic stability in mouse liver microsomes S9 fraction assessed as CYP450-mediated metabolism by measuring parent compound remaining measured after 15 mins in presence of NADPH; type: ADME, subcellular; conditions: read-out: Stability
# [11] = Cytotoxicity against Swiss mouse peritoneal macrophages assessed as reduction in cell viability measured after 5 days by microscopic analysis; type: toxicity, cell-based, Peritoneal macrophage; conditions: time 5 day
# Leishmania infantum [12] = test: as §1, with “PMM” for “MIL”, “PMM” for “MIL5C13”; type: functional, organism-based; conditions: Peritoneal macrophage
# Cytochrome P450 [13] = molecular target: T2, Cytochrome P450; test: Metabolic stability in human liver microsomes S9 fraction assessed as CYP450-mediated metabolism by measuring parent compound remaining measured after 30 mins in presence of NADPH; type: ADME, subcellular; conditions: read-out: Stability
# [14] = Metabolic stability in golden hamster liver microsomes S9 fraction assessed as CYP450-mediated metabolism by measuring parent compound remaining measured after 15 mins in presence of NADPH; type: ADME, subcellular, Mesocricetus auratus; conditions: read-out: Stability
# [15] = Cytotoxicity against human MRC5 cells assessed as reduction in cell viability incubated for 3 days by resazurin dye based fluorescence analysis; type: toxicity; conditions: time 3 day
# [16] = Metabolic stability in mouse liver microsomes S9 fraction assessed as UGT-mediated metabolism by measuring parent compound remaining measured after 30 mins in presence of NADPH; type: ADME, subcellular; conditions: read-out: Stability
# Leishmania infantum [17] = test: Antileishmanial activity against intracellular Leishmania infantum MHOM/MA(BE)/67 ITMAP263 amastigotes infected in Swiss mouse peritoneal macrophage assessed as inhibition of parasite growth measured after 5 days by geimsa staining based microscopic analysis; type: functional, organism-based; conditions: MHOM/MA(BE)/67 ITMAP263, Peritoneal macrophage, 120 h
# [18] = Metabolic stability in golden hamster liver microsomes S9 fraction assessed as CYP450-mediated metabolism by measuring parent compound remaining measured after 60 mins in presence of NADPH; type: ADME, subcellular, Mesocricetus auratus; conditions: read-out: Stability
# [19] = Metabolic stability in golden hamster liver microsomes S9 fraction assessed as CYP450-mediated metabolism by measuring parent compound remaining measured after 30 mins in presence of NADPH; type: ADME, subcellular, Mesocricetus auratus; conditions: read-out: Stability
# [20] = molecular target: T1, UDP-glucuronosyltransferases (UGTs); test: Metabolic stability in human liver microsomes S9 fraction assessed as UGT-mediated metabolism by measuring parent compound remaining measured after 30 mins in presence of NADPH; type: ADME, subcellular; conditions: read-out: Stability
# [21] = Metabolic stability in mouse liver microsomes S9 fraction assessed as CYP450-mediated metabolism by measuring parent compound remaining measured after 30 mins in presence of NADPH; type: ADME, subcellular; conditions: read-out: Stability
# [22] = Selectivity index, ratio of CC50 for cytotoxicity against human MRC5 cells to EC50 for Trypanosoma cruzi Tulahuen CL2 amastigotes expressing beta galactosidase infected in human MRC5 cells; type: toxicity, cell-based; conditions: read-out: Ratio CC50/EC50
# [23] = Metabolic stability in golden hamster liver microsomes S9 fraction assessed as UGT-mediated metabolism by measuring parent compound remaining measured after 60 mins in presence of NADPH; type: ADME, subcellular, Mesocricetus auratus; conditions: read-out: Stability
# [24] = Metabolic stability in golden hamster liver microsomes S9 fraction assessed as UGT-mediated metabolism by measuring parent compound remaining measured after 30 mins in presence of NADPH; type: ADME, subcellular, Mesocricetus auratus; conditions: read-out: Stability
# [25] = molecular target: T1, UDP-glucuronosyltransferases (UGTs); test: Metabolic stability in human liver microsomes S9 fraction assessed as UGT-mediated metabolism by measuring parent compound remaining measured after 15 mins in presence of NADPH; type: ADME, subcellular; conditions: read-out: Stability
# Cytochrome P450 [26] = molecular target: T2, Cytochrome P450; test: Metabolic stability in human liver microsomes S9 fraction assessed as CYP450-mediated metabolism by measuring parent compound remaining measured after 60 mins in presence of NADPH; type: ADME, subcellular; conditions: read-out: Stability
# Leishmania infantum [27] = test: Antileishmanial activity against intracellular Leishmania infantum MHOM/MA(BE)/67 amastigotes infected in golden hamster assessed as reduction of amastigote burdens in bone marrow at 40 mg/kg, po SID for 5 days by geimsa staining based microscopic analysis; type: functional; design: scale not given: the % may be the effect or the level left; conditions: time 5 day
# Leishmania infantum [28] = test: Antileishmanial activity against intracellular Leishmania infantum MHOM/MA(BE)/67 amastigotes infected in golden hamster assessed as reduction of amastigote burdens in liver at 40 mg/kg, po SID for 5 days by geimsa staining based microscopic analysis; type: functional; design: scale not given: the % may be the effect or the level left; conditions: time 5 day
# Leishmania infantum [29] = test: Antileishmanial activity against intracellular Leishmania infantum MHOM/MA(BE)/67 amastigotes infected in golden hamster assessed as reduction of amastigote burdens in spleen at 40 mg/kg, po SID for 5 days by geimsa staining based microscopic analysis; type: functional; design: scale not given: the % may be the effect or the level left; conditions: time 5 day
compound,measurement,setting,value
Cc1ncnc2c1c(-c1ncccc1Cl)cn2[C@@H]1O[C@H](CO)[C@@H](O)[C@H]1O,selectivity ratio,[1],> 50
same,remaining at 0.25 h,[2],92%
same,EC50,Leishmania infantum [3],730 nM
same,remaining at 1 h,[4],74%
same,EC50,Trypanosoma cruzi,700 nM
same,remaining at 1 h,[5],101%
same,EC50,Leishmania infantum [6],670 nM
same,remaining at 0.25 h,Cytochrome P450 [7],107%
same,remaining at 1 h,[8],98%
same,remaining at 0.25 h,[9],95%
same,remaining at 0.25 h,[10],98%
same,CC50 at 120 h,[11],> 64000 nM
same,EC50,Leishmania infantum [12],1460 nM
same,remaining at 0.5 h,Cytochrome P450 [13],100%
same,remaining at 0.25 h,[14],86%
same,CC50 at 72 h,[15],> 64000 nM
same,remaining at 0.5 h,[16],91%
same,EC50,Leishmania infantum [17],1200 nM
same,remaining at 1 h,[18],90%
same,remaining at 0.5 h,[19],98%
same,remaining at 0.5 h,[20],95%
same,remaining at 0.5 h,[21],83%
same,selectivity ratio,[22],> 91
same,remaining at 1 h,[23],96%
same,remaining at 0.5 h,[24],96%
same,remaining at 0.25 h,[25],93%
same,remaining at 1 h,Cytochrome P450 [26],99%
CCCCCCCCCCCCCCCCOP(=O)([O-])OCC[N+](C)(C)C [MILTEFOSINE],Activity,Leishmania infantum [27],93.1%
same,EC50,Leishmania infantum [17],8300 nM
same,Activity,Leishmania infantum [28],94%
same,Activity,Leishmania infantum [29],99.2%
